For the test, the target named is human CSNK1A1 (Homo sapiens (Human), UniProt P48729). In words: CSNK1A1 assay (ADP-Glo, 1 μM ATP). It is filed as biochemical. Conditions: median, read-out: CSNK1A1 Low ATP IC50 [mol/l] (median). As for the experimental part:
CSNK1A1-inhibitory activity of compounds of the present invention in presence of 1 μM adenosine-tri-phosphate (ATP) was quantified employing the CSNK1A1 assay as described in the following paragraphs. In essence, the enzyme activity is measured by quantification of the adenosine-di-phosphate (ADP), which is generated as a co-product of the enzyme reaction, via the “ADP-Glo™ Kinase Assay” kit from the company Promega. This detection system works as follows: In a first step the ATP not consumed in the kinase reaction is quantitatively converted to CAMP employing an adenylate cyclase (“ADP-Glo-reagent”), then the adenylate cyclase is stopped and the ADP generated in the kinase reaction converted to ATP which generates in a luciferase-based reaction a glow-luminescence signal (“Kinase Detection Reagent”).
Recombinant fusion protein of N-terminal Glutathion-S-Transferase (GST) and full-length human CSNK1A1, expressed by baculovirus infected insect cells and purified via Glutathion affinity chromatography, was purchased from Life Technologies (product no. PV4174) and used as enzyme. As substrate for the kinase reaction the biotinylated peptide biotin-Ahx-KRRRAL-pS-VASLPGL (C-terminus in amide form) was used which can be purchased e.g. from the company Biosyntan (Berlin-Buch, Germany).
For the assay 50 nl of a 100-fold concentrated solution of the test compound in DMSO was pipetted into a white 1536-well microtiter plate (Greiner Bio-One, Frickenhausen, Germany), 2 μL of a solution of CSNK1A1 in aqueous assay buffer [50 mM HEPES pH 7.5, 10% (v/v) glycerol, 10 mM MgCl2, 50 mM NaCl, 1 mM dithiothreitol, 0.01% (w/v) bovine serum albumin, 0.01% (v/v) Triton X-100] were added and the mixture was incubated for 15 min at 22° C. to allow pre-binding of the test compounds to the enzyme before the start of the kinase reaction. Then the kinase reaction was started by the addition of 3 μL of a solution of ATP (1.67 μM=>final conc. in the 5 μL assay volume is 1 μM) and peptide substrate (50 μM=>final conc. in the 5 μL assay volume is 30 μM) in assay buffer and the resulting mixture was incubated for a reaction time of 30 min at 22° C. The concentration of CSNK1A1 was adjusted depending of the activity of the enzyme lot and was chosen appropriate to have the assay in the linear range, a typical concentrations are about 0.0375 ng/μL. The reaction was stopped by the addition of 2.5 μL of “ADP-Glo-reagent” (1:1.5 fold diluted with water) and the resulting mixture was incubated at 22° C. for 1 h to convert the ATP not consumed in the kinase reaction completely to CAMP. Subsequently 2.5 μL of the “kinase detection reagent” (1.2 fold more concentrated than recommended by the producer) were added, the resulting mixture was incubated at 22° C. for 1 h and then the luminescence measured with a suitable measurement instrument (e.g. Viewlux™ from Perkin-Elmer). The amount of emitted light was taken as a measure for the amount of ADP generated and thereby for the activity of the CSNK1A1.
The data were normalised (enzyme reaction without inhibitor=0% inhibition, all other assay components but no enzyme=100% inhibition).

Sequence of human CSNK1A1 (P48729 whole entry): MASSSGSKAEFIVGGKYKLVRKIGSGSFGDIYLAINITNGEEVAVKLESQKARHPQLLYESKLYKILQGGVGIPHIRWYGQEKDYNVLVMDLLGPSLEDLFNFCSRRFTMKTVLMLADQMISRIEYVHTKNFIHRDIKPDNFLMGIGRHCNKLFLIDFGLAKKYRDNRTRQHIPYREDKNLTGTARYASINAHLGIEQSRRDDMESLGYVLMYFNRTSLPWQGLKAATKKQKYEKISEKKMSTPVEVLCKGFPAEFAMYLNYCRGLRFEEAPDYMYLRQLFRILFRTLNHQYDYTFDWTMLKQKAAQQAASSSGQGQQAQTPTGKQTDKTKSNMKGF

In the case of `O=C(Cc1cnc2ccccn12)Nc1cc(-c2[nH]c3cccnc3c2-c2ccccn2)ccn1` [Example 1, 2-imidazo[1,2-a]pyridin-3-yl-N-[4-[3-(2-pyridyl)-^1H-pyrrolo[3,2-b]pyridin-2-yl]-2-pyridyl]acetamide], the IC50 was 5.89 nM.
Then `Cn1cc(CC(=O)Nc2cc(-c3[nH]c4cccnc4c3-c3ccccn3)ccn2)cn1` [Example 2, 2-(1-methylpyrazol-4-yl)-N-[4-[3-(2-pyridyl)-^1H-pyrrolo[3,2-b]pyridin-2-yl]-2-pyridyl]acetamide], with 4.21 nM; and `Cn1cnc(CC(=O)Nc2cc(-c3[nH]c4cccnc4c3-c3ccccn3)ccn2)c1` [Example 5, 2-(1-methylimidazol-4-yl)-N-[4-[3-(2-pyridyl)-^1H-pyrrolo[3,2-b]pyridin-2-yl]-2-pyridyl]acetamide], with 4.12 nM.
Then `Cc1nn(C)cc1CC(=O)Nc1cc(-c2[nH]c3cccnc3c2-c2ccccn2)ccn1` [Example 9, 2-(1,3-dimethylpyrazol-4-yl)-N-[4-[3-(2-pyridyl)-^1H-pyrrolo[3,2-b]pyridin-2-yl]-2-pyridyl]acetamide], with 2.61 nM; and `O=C(Cc1ccon1)Nc1cc(-c2[nH]c3cccnc3c2-c2ccccn2)ccn1` [Example 10, 2-isoxazol-3-yl-N-[4-[3-(2-pyridyl)-^1H-pyrrolo[3,2-b]pyridin-2-yl]-2-pyridyl]acetamide], with 1.97 nM; and `Cc1ocnc1CC(=O)Nc1cc(-c2[nH]c3cccnc3c2-c2ccccn2)ccn1` [Example 11, 2-(5-methyloxazol-4-yl)-N-[4-[3-(2-pyridyl)-^1H-pyrrolo[3,2-b]pyridin-2-yl]-2-pyridyl]acetamide], with 3.43 nM.
Regarding `Cc1noc(C)c1CC(=O)Nc1cc(-c2[nH]c3cccnc3c2-c2ccccn2)ccn1` [Example 12, 2-(3,5-dimethylisoxazol-4-yl)-N-[4-[3-(2-pyridyl)-^1H-pyrrolo[3,2-b]pyridin-2-yl]-2-pyridyl]acetamide], the IC50 stood at 1.71 nM.
For `Cc1cc(CC(=O)Nc2cc(-c3[nH]c4cccnc4c3-c3ccccn3)ccn2)on1` [Example 13, 2-(3-methylisoxazol-5-yl)-N-[4-[3-(2-pyridyl)-^1H-pyrrolo[3,2-b]pyridin-2-yl]-2-pyridyl]acetamide], the IC50 came out at 1.69 nM.
Then `Cc1cc(CC(=O)Nc2cc(-c3[nH]c4cccnc4c3-c3ccccn3)ccn2)n(C)n1` [Example 14], with 1.94 nM.
Then `Cc1cc(CC(=O)Nc2cc(-c3[nH]c4cccnc4c3-c3ccccn3)ccn2)nn1C` [Example 16, 2-(1,5-dimethylpyrazol-3-yl)-N-[4-[3-(2-pyridyl)-^1H-pyrrolo[3,2-b]pyridin-2-yl]-2-pyridyl]acetamide], with 2.74 nM.
As to `Cc1nn(C)c(C)c1CC(=O)Nc1cc(-c2[nH]c3cccnc3c2-c2ccccn2)ccn1` [Example 17, N-[4-[3-(2-pyridyl)-^1H-pyrrolo[3,2-b]pyridin-2-yl]-2-pyridyl]-2-(1,3,5-trimethylpyrazol-4-yl)acetamide], the IC50 stood at 2.97 nM.
For the compound `Cn1cc(C(CC(F)F)C(=O)Nc2cc(-c3[nH]c4cccnc4c3-c3ccccn3)ccn2)cn1` (stereo not drawn) [Example 19, 4,4-difluoro-2-(1-methylpyrazol-4-yl)-N-[4-[3-(2-pyridyl)-^1H-pyrrolo[3,2-b]pyridin-2-yl]-2-pyridyl]butanamide], the IC50 turned out to be 6.82 nM.
Take `O=C(Cc1ccn(CC(F)(F)F)n1)Nc1cc(-c2[nH]c3cccnc3c2-c2ccccn2)ccn1` [Example 20, N-[4-[3-(2-pyridyl)-^1H-pyrrolo[3,2-b]pyridin-2-yl]-2-pyridyl]-2-[1-(2,2,2-trifluoroethyl)pyrazol-3-yl]acetamide]: the IC50 was determined as 1.88 nM.
Regarding `O=C(Cc1ccns1)Nc1cc(-c2[nH]c3cccnc3c2-c2ccccn2)ccn1` [Example 22, 2-isothiazol-5-yl-N-[4-[3-(2-pyridyl)-^1H-pyrrolo[3,2-b]pyridin-2-yl]-2-pyridyl]acetamide], the IC50 is 1.47 nM.
Turning to `O=C(Cc1ccno1)Nc1cc(-c2[nH]c3cccnc3c2-c2ccccn2)ccn1` [Example 23, 2-isoxazol-5-yl-N-[4-[3-(2-pyridyl)-^1H-pyrrolo[3,2-b]pyridin-2-yl]-2-pyridyl]acetamide], the IC50 turned out to be 1.42 nM.
To `Cc1ncc(CC(=O)Nc2cc(-c3[nH]c4cccnc4c3-c3ccccn3)ccn2)o1` [Example 24, 2-(2-methyloxazol-5-yl)-N-[4-[3-(2-pyridyl)-^1H-pyrrolo[3,2-b]pyridin-2-yl]-2-pyridyl]acetamide] belongs 1.95 nM; to `Cc1nc(CC(=O)Nc2cc(-c3[nH]c4cccnc4c3-c3ccccn3)ccn2)co1` [Example 25, 2-(2-methyloxazol-4-yl)-N-[4-[3-(2-pyridyl)-^1H-pyrrolo[3,2-b]pyridin-2-yl]-2-pyridyl]acetamide], 2.79 nM.
For `Cc1cc(CC(=O)Nc2cc(-c3[nH]c4cccnc4c3-c3ccccn3)ccn2)no1` [Example 26, 2-(5-methylisoxazol-3-yl)-N-[4-[3-(2-pyridyl)-^1H-pyrrolo[3,2-b]pyridin-2-yl]-2-pyridyl]acetamide], the IC50 amounted to 2.03 nM.
To `O=C(Cc1cc(C2CC2)on1)Nc1cc(-c2[nH]c3cccnc3c2-c2ccccn2)ccn1` [Example 27, 2-(5-cyclopropylisoxazol-3-yl)-N-[4-[3-(2-pyridyl)-^1H-pyrrolo[3,2-b]pyridin-2-yl]-2-pyridyl]acetamide] belongs 1.57 nM.
Then `Cn1nc(CC(=O)Nc2cc(-c3[nH]c4cccnc4c3-c3ccccn3)ccn2)cc1C1CC1` [Example 29, 2-(5-cyclopropyl-1-methyl-pyrazol-3-yl)-N-[4-[3-(2-pyridyl)-^1H-pyrrolo[3,2-b]pyridin-2-yl]-2-pyridyl]acetamide], with 2.21 nM; and `Cc1nocc1CC(=O)Nc1cc(-c2[nH]c3cccnc3c2-c2ccccn2)ccn1` [Example 30, 2-(3-methylisoxazol-4-yl)-N-[4-[3-(2-pyridyl)-^1H-pyrrolo[3,2-b]pyridin-2-yl]-2-pyridyl]acetamide], with 2.62 nM; and `O=C(Nc1cc(-c2[nH]c3nccnc3c2-c2ccccn2)ccn1)[C@@H](CC(F)F)c1ccc(F)cc1` [Example C1, reference compound], with 1.25 nM.
Regarding `O=C(Nc1cc(-c2[nH]c3ccc(F)nc3c2-c2ccccn2)ccn1)[C@@H](CC(F)F)c1ccc(F)cc1` [Example C2, reference compound], the IC50 was 1.21 nM.
Turning to `O=C(Nc1cc(-c2[nH]c3c(OCC(F)F)ncnc3c2-c2ccccn2)ccn1)[C@@H](CC(F)F)c1ccc(F)cc1` [Example C3, reference compound], the IC50 worked out at 3.1 nM.
